According to patent US9034862B2, “Compositions and methods for the treatment of cancer” (priority 2011, dated 2015):

Key:
[1] = tested on: human cervix carcinoma HeLa cells; test: MTT assay, HeLa; type: cell-based
Experimental: (§3) Solutions of the platinum compounds were freshly prepared in sterile PBS before use and their concentrations quantitated by atomic absorption spectroscopy. Cells were seeded on a 96-well plate (1200 cells per well for cancer cells and 1800 cells per well for the normal lung fibroblasts) in 100 μL RPMI or DMEM media, and incubated for 24 h. […] The cells were then treated with 20 μL of 3-(4,5-dimethylthiazol-2-yl)-2,5-diphenyltetrazolium bromide (MTT) (5 mg/mL in PBS) and incubated for 4 h. The medium was removed, 100 μL of DMSO was added to the cells, and the absorbance of the purple formazan was recorded at 560 nm using a BioTek Synergy HT multi-detection microplate plate reader. Each condition was performed in triplicate and three independent experiments were carried out for each cell line.
(§4) Human prostate carcinoma (PC3) and human cervix carcinoma (HeLa) cells were obtained from the ATCC. The human lung carcinoma cell line A549 was kindly provided by David E. Root (Whitehead Institute for Biomedical Research). Cells were incubated at 37° C. in 5% CO2 and grown in RPMI (PC3) or DMEM (A549 and HeLa) medium supplemented with 10% fetal bovine serum and 1% penicillin/streptomycin. Cells were passaged every 3 to 4 days and restarted from the frozen stock upon reaching passage number 20.
(§5) Solutions of the platinum agents were freshly prepared in sterile PBS before use and the platinum content was quantitated by AAS. Cells were seeded on 96 well plates (1200 cells per well) in 100 μL RPMI or DMEM media\ and incubated for 24 hours. […] The cells were then treated with 20 μL of 3-(4,5-dimethylthiazol-2-yl)-2,5-diphenyltetrazolium bromide (MTT) (5 mg/mL in PBS) and incubated for 4 h. The medium was removed, 100 μL of DMSO were added to the cells, and the absorbance of the purple formazan was recorded at 570 nm using a BioTek Synergy HT multi-detection microplate plate reader. For each cell line, three independent experiments were carried out in triplicate.

[2] = tested on: human bone sarcoma U2OS; test: MTT assay, U2OS; type: cell-based
Experimental: (§1) Human colon carcinoma HT29, human breast carcinoma MCF7, human bone sarcoma U2OS, human prostate carcinoma PC3, and human cervix carcinoma HeLa cells were obtained from the ATCC. A2780/CP70 cisplatin-resistant human ovarian cancer cells were kindly provided by Dr. Stephen B. Howell (Moores UCSD Cancer Center) and the human lung carcinoma cell lines A549 and normal lung fibroblast MRC5 by David E. Root (Whitehead Institute for Biomedical Research). Cells were incubated at 37° C. in 5% CO2 and grown in RPMI (HT29, A2780/CP70, and PC3) or DMEM (A549, MRC5, HeLa, MCF7, and U2OS) medium supplemented with 10% fetal bovine serum and 1% penicillin/streptomycin. Cells were passed every 3 to 4 days and restarted from a frozen stock upon reaching pass number 20.
(§2) Solutions of the platinum compounds were freshly prepared in sterile PBS before use and their concentrations quantitated by atomic absorption spectroscopy. […] The cells were then treated with 20 μL of 3-(4,5-dimethylthiazol-2-yl)-2,5-diphenyltetrazolium bromide (MTT) (5 mg/mL in PBS) and incubated for 4 h. The medium was removed, 100 μL of DMSO was added to the cells, and the absorbance of the purple formazan was recorded at 560 nm using a BioTek Synergy HT multi-detection microplate plate reader. Each condition was performed in triplicate and three independent experiments were carried out for each cell line.

[3] = tested on: calf thymus DNA; test: Ethidium bromide DNA-binding competition, Scatchard analysis; set-up: key: competitive (type A); non-competitive (type D); both (type B); No inhibition of ethidium binding is labeled as type C
Source text: Using this approach, it is possible to determine whether the inhibition of ethidium binding is competitive (type A), non-competitive (type D), or both (type B). No inhibition of ethidium binding is labeled as type C.

[4] = tested on: GLuc expression in A549 cells; test: Transcription assay, globally platinated pGLuc, A549; type: cell-based, human; conditions: for transcription level (normalized against unplatinated plasmid): Pt/DNA ratio of […] for phenanthriplatin
Experimental: Transfection of transcription probes into A549 and HT29 cells with the pGLuc plasmid was carried out using liposomal transfecting agents. Determination of expression levels was tested by Luciferase assays monitored by a luminometer (J. Am. Chem. Soc. 2010, 132, 7429-7435). A549 cells were plated in 96-well plates at 2,000 cells/well and HT29 cells were plated in 96-well plates at 6,000 cells/well. After 48 h incubation (at ˜30% confluence), cells were transfected with 50 ng of platinated plasmids in 25 μL Opti-MEM and 0.125 μL Lipofectamine 2000, and subsequently 50 μL of antibiotics-free DMEM supplemented with 10% FBS. After 2 h, the cells were washed with medium and 100 μL of fresh medium was added. The experiment was carried out in quadruplicate.
GLuc activity was monitored using a luminescence plate reader (Synergy 2, BioTek, Winooski, Vt., USA). A 10 μL volume of medium at different time points (12, 24, 36, 48, 60 h) was transferred into opaque white 96-well plates, and 25 μL of GLuc assay solution (10 μM colelenterazine (NanoLight Technologies, Pinetop, Ariz., USA) in 2.5 mM acidified methanol (100 mM HCl), buffer (10 mM Tris-HCl pH 7.8, 1 mM EDTA, 0.6 M NaCl)) was added by the automatic injector of the instrument.
In another embodiment, A549 or HT29 cells were transfected using the platinated transcription probes, and transcription levels were investigated by determining GLuc expression as measured by […] following addition of coelenterazine as a substrate for the exported enzyme. The emission intensities were normalized against unplatinated plasmids as a control. Transcription profiles were obtained by plotting normalized levels of GLuc expression against platination levels (Pt/plasmid ratio) at five different time points. […] An increase in D0 value at different time points represents restoration of transcription.

[5] = tested on: 5′-dGMP; conditions: 16 equiv 5′-dGMP, 37° C., PBS pH 7.4
Experimental: The 1-D ^1H NMR kinetic studies were performed in duplicate as a standard time-arrayed experiment using a variable delayed list. Incremented 1-D spectra were processed in exactly the same way and signals of aromatic amine ligands from platinum compounds were integrated. The relative concentrations of the platinum compound at each time point were calculated from peak integrals. […] Reactions of platinum compounds with 5′-dGMP were performed in NMR tubes containing 2 mM of the platinum compounds and 32 mM (16 equiv) of 5′-dGMP in 10 mM PBS buffer, D2O, pH*7.4 at 37° C.

[6] = tested on: human lung carcinoma A549; test: MTT assay, A549; type: cell-based
Experimental: as §3, §4, §5

[7] = tested on: human prostate carcinoma PC3; test: MTT assay, PC3; type: cell-based
Experimental: as §3, §4, §5

[8] = tested on: human breast carcinoma MCF7; test: MTT assay, MCF7; type: cell-based
Experimental: as §1, §2

cis-[Pt(NH3)2(phenanthridine)Cl]NO3 [phenanthriplatin]
IC50 ([1]; Table 3, HeLa Cervix, 72-h incubation): 300 ± 20 nM
IC50 ([1]; Table 5, HeLa, 72-h incubation): 300 ± 20 nM
IC50 ([1]; Table 11 (Example 3), HeLa Cervix, 72 h): 210 ± 35 nM
IC50 ([1]; Table 14, HeLa, MTT assay): 370 ± 40 nM
IC50 ([2]; Table 3, U2OS Bone, 72-h incubation): 590 ± 40 nM
IC50 ([2]; Table 5, U2OS, 72-h incubation): 590 ± 40 nM
IC50 ([2]; Table 14, U2OS, MTT assay): 1050 ± 20 nM
type of inhibition of ethidium binding (Scatchard) ([3]; 12-h incubation period): type D
type of inhibition of ethidium binding (Scatchard) ([3]; 1 min incubation period): type C
transcription level (normalized against unplatinated plasmid) ([4]; A549, 12 h): 19.5%
D0 (Pt lesions per plasmid required to reduce transcription levels to 37% of control) ([4]; A549, 12 h after transfection): 14.2 Pt/plasmid
D0 (Pt lesions per plasmid required to reduce transcription levels to 37% of control) ([4]; A549, 24 h after transfection): 17.3 Pt/plasmid
D0 (Pt lesions per plasmid required to reduce transcription levels to 37% of control) ([4]; A549, 36 h after transfection): 22.2 Pt/plasmid
D0 (Pt lesions per plasmid required to reduce transcription levels to 37% of control) ([4]; A549, 48 h after transfection): 31.6 Pt/plasmid
transcription level (normalized against unplatinated plasmid) ([4]; A549, 60 h): 51.1%
D0 (Pt lesions per plasmid required to reduce transcription levels to 37% of control) ([4]; A549, 60 h after transfection): 39.8 Pt/plasmid
pseudo-first order rate constant, reaction with 5′-dGMP [5]: 0.22 h⁻¹
IC50 ([6]; Table 3, A549 Lung, 72-h incubation): 220 ± 10 nM
IC50 ([6]; Table 4, A549 human lung carcinoma, 72 h incubation): 170 ± 2 nM
IC50 ([6]; Table 5, A549, 72-h incubation): 220 ± 10 nM
IC50 ([6]; Table 11 (Example 3), A549 Lung, 72 h): 220 ± 6 nM
IC50 ([6]; Table 14, A549, MTT assay): 170 ± 10 nM
IC50 ([7]; Table 3, PC3 Prostate, 72-h incubation): 740 ± 40 nM
IC50 ([7]; Table 11 (Example 3), PC3 Prostate, 72 h): 600 ± 250 nM
IC50 ([8]; Table 3, MCF7 Breast, 72-h incubation): 940 ± 90 nM
IC50 ([8]; Table 14, MCF7, MTT assay): 1140 ± 20 nM
